How the values were obtained:
[1] = system: HL-60 cells; assay: HL-60 cell differentiation (Wright and non-specific esterase staining); assay type: cell-based, human; details: 0.5 uM, 3-5 days
Method: (§1) Cell Growth, Differentiation and Apoptosis Assays. The number of viable cells was determined using the MTT assay according to the manufacturer's protocol (Promega, Madison, Wis.) or using a Coulter counter. Briefly, a MTT assay is an analytical technique that uses the dye dimethylthiazolyl-diphenyltetrazolium (MTT) which turns from yellow to brownish-purple as it is reduced in the mitochondria of living cells. The assay is useful in calorimetric quantitation of cell viability and proliferation. In contrast, cell differentiation was evaluated using Wright and Non-Specific Esterase (NSE) staining of cells collected on microscope slides by cytospin as previously described (Magrinat, G. et al. (1992) Blood 80: 1880-1884). Apoptosis was assayed by flow cytometry and by determining DNA fragmentation using agarose gel electrophoresis as previously described (Shami, P. J. et al. (1998) Leukemia 12: 1461-1466). For the flow cytometry assay, we used the propidium iodide staining method of Nicoletti et al. (Nicoletti, I. et al. (1991) J. Immunol. Methods 139: 271-279).
HL-60 cells were treated with JS-K at a concentration of 0.5 uM for 3-5 days. […] JS-K appears to induce cell differentiation.

[2] = system: HL-60 cells; assay: NO generation (nitrate and nitrite) by HL-60 cells in serum-free PBS; assay type: cell-based, human
Method: Production of NO was then determined by measuring levels of nitrate and nitrite, byproducts of NO oxidation. Serum-free buffer was used to eliminate the confounding effects of nitrates in the serum or medium. When added to HL-60 cells suspended in serum-free phosphate buffered saline (PBS) buffer at a concentration of 10 μM, JS-K appeared to generate NO in a time-dependent fashion with peak levels at 24 hours. […] For this, JS-K was added to HL-60 cells suspended in serum-free PBS at a concentration of 20 μM and nitrate+nitrite levels in the supernatants were determined 24 hours post-addition.

[3] = system: HL-60 cells; assay: Apoptosis in HL-60 cells by flow cytometry (sub-G0 fraction); assay type: cell-based, human; details: for percentage of apoptotic cells (sub-G0 fraction): three days post-addition, control 7 percent
Method: Cell Lines and Culture Conditions. HL-60, DLD1, and U937 cells were obtained from ATCC (Rockville, Md.). Meth A cells were from Dr. Wolfram Samlowski (University of Utah, Salt Lake City, Utah). The PPC-1 cell line was provided by Dr. Graeme Bolger (University of Alabama, Birmingham, Ala.). For the cell growth and apoptosis experiments, cells were cultured at a density of 150,000 cells/ml in RPMI-1640 with 10% fetal bovine serum at 37° C. in a 5% CO2 humidified atmosphere. Agents were added at the indicated concentrations 24 h after culture initiation. At the indicated time intervals, cells were harvested and washed twice in phosphate buffered saline (PBS) prior to processing for analysis of growth, differentiation, and apoptosis.
as §1
To determine if JS-K could induce apoptosis in leukemia cells, it was added to HL-60 cells at concentrations of 0.5 and 1.0 μM. Three days post-addition, the percentage of apoptotic cells was determined by measuring the number of cells in the sub-G0 fraction of the cell cycle using flow cytometry. […]

[4] = system: HL-60 cells; assay: Subcutaneous HL-60 tumor implants in NOD/SCID mice; assay type: in vivo
Method: To study the in vivo antineoplastic potency of JS-K, NOD/SCID mice were injected in the flanks subcutaneously with HL-60 or PPC-1 cells (2.5×10^6 cells per flank). When subcutaneous tumors were palpable, treatment with JS-K or an equal volume of vehicle (20% dimethyl sulfoxide in PBS) was started using the indicated doses and route. Tumor size was measured daily or every other day using a Vernier caliper. Tumor volume was calculated using the formula: width×length×[(width+length)/2]×0.5236. Fifteen to 20 days after tumor cell implantation, animals were sacrificed by CO2 inhalation and tumors were collected for histochemical analysis.
Histological Analysis of Tumors. After sacrifice, subcutaneous tumors were dissected out, fixed in 10% formaldehyde and imbedded in paraffin. Four-um sections were cut and stained with Hematoxylin and Eosin.
To determine the in vivo therapeutic efficacy of JS-K, NOD/SCID mice were injected subcutaneously with 5×10^6 HL-60 cells in the flanks. When tumors were measurable (4 to 5 days after leukemia cell inoculation), the mice were divided into 2 groups that received either vehicle or JS-K at a dose of 4 μmol/kg administered intravenously 3 times per week. After seventeen days from the leukemia cell inoculation there appeared to be a significant difference in tumor volume between vehicle and JS-K treated animals: tumor volume was 9.51±1.22 and 4.15±1.06 cm^3 in vehicle and JS-K treated animals, respectively.

[5] = 4 μmol/kg i.v. 3 times per week

CCOC(=O)N1CCN(/[N+]([O-])=N/Oc2ccc([N+](=O)[O-])cc2[N+](=O)[O-])CC1 [JS-K, O^2-(2,4-dinitrophenyl) 1-[(4-ethoxycarbonyl)piperazin-1-yl]diazen-1-ium-1,2-diolate]
morphology by Wright stain [1]: morphologic changes consistent with a monocytic phenotype
percentage of HL-60 cells expressing NSE ([1]; from 1): 40%
time of peak NO levels (nitrate and nitrite) ([2]; 10 μM, HL-60 cells in serum-free PBS): 24 h
extent of NO release versus cell number ([2]; 20 μM, nitrate+nitrite in supernatants 24 hours post-addition): positively correlated with the cell number
activation of JS-K and NO release by supernatants from HL-60 cells ([2]; cell supernatants only): did not induce activation of JS-K and NO release
percentage of apoptotic cells (sub-G0 fraction) ([3]; 0.5 μM): 27±3%
percentage of apoptotic cells (sub-G0 fraction) ([3]; 1.0 μM): 43±2%
percentage of apoptotic cells ([3]; HL-60, flow cytometry, co-administration of C-VAD-FMK and JS-K, p=0.44 vs untreated): 2.65+/−0.28%
leukemia implant growth in vivo [4, 5]: significant delay in leukemia implant growth in vivo
tumor histology (necrosis) at experiment termination [4, 5]: extensive necrosis
tumor volume ([4]; 4 μmol/kg i.v. 3 times per week, seventeen days from inoculation, vehicle 9.51±1.22): 4.15±1.06 cm^3
cell necrosis in tumors (histologic analysis) ([4]; controls ˜10%): more than 50%
reduction in tumor volume ([4]; sixteen days after starting therapy, versus control): more than 50%
average tumor volume ([4]; sixteen days after starting therapy, control 8.34±0.72, P=0.039): 3.13±1.14 cm^3

Source: patent publication US8404665B2, “In vivo use of glutathione S-transferase activated nitric oxide donors” (University of Utah Research Foundation, priority 2002, dated 2013)
